Laboratory results: patent US5607691A, “Compositions and methods for enhanced drug delivery” (priority 1995, dated 1997)
Counter-ions that a name gives are not always drawn.

What was measured:
[1] = in vivo; cited from earlier work
[2] = in vivo; cited from earlier work; remark: listed apart in the source
[3] = in animals; cited from earlier work
[4] = given intravenously or intramuscularly; cited from earlier work
[5] = man, incomplete and variable, averaging; cited from earlier work
in vitro = in vitro ADME, human; conditions: Table 5, human serum, 37° C.; for half-life: human, serum, read-out: Serum Half-life (converted)
Method in brief: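 Complex from 6 mM ethanol stock added to freshly defrosted human serum at 37° C. Aliquots quenched in 2% zinc sulfate, centrifuged, and supernatant analysed by reversed-phase C8 HPLC for % remaining by peak area. Half-life from slope of ln % remaining vs time.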

[6] = human or mouse skin; cited from earlier work

Compound: CCn1cc(C(=O)O)c(=O)c2ccc(C)nc21 [Nalidixic acid]
- absorption [1]: rapidly absorbed from the gastrointestinal tract

Compound: C[C@H]1O[C@@H](O[C@H]2[C@@H](O)C[C@H](O[C@H]3[C@@H](O)C[C@H](O[C@H]4CC[C@@]5(C)[C@H](CC[C@@H]6[C@@H]5CC[C@]5(C)[C@@H](C7=CC(=O)OC7)CC[C@]65O)C4)O[C@@H]3C)O[C@@H]2C)C[C@H](O)[C@@H]1O [digitoxin, 3β,5β-3-[(O-2,6-dideoxy-β-D-ribo-hexopyranosyl(1→4)-O-2,6-dideoxy-β-D-ribo-hexopyranosyl-(1→4)-2,6-dideoxy-β-D-ribohexopyranosyl)oxy]-14-hydroxycard-20(22)-enolide]
- absorption [1]: completely absorbed

Compound: O=c1[nH]cc(F)c(=O)[nH]1 [fluorouracil, 5-fluoro-2,4 (1H,3H)-pyrimidinedione]
- passage across blood-brain barrier and placenta [2]: diffuses readily across the blood-brain barrier

Compound: O=C1Nc2ccc(Cl)cc2C(c2ccccc2Cl)=NC1O[C@@H]1O[C@H](C(=O)O)[C@@H](O)[C@H](O)[C@H]1O (stereo partly shown) [lorazepam glucuronide]
- central nervous system activity [3]: no demonstrable central nervous system activity

Compound: O=C1Nc2ccc(Cl)cc2C(c2ccccc2Cl)=NC1O (stereo not shown) [lorazepam, 7-chloro-5-(o-chlorophenyl)-1,3-dihydro-3-hydroxy-2H-1,4-benzodiazepin-2-one]
- mean half-life [4]: about 16 hours

Compound: O.Sc1ncnc2nc[nH]c12 [mercaptopurine, 1,7-dihydro-6H-purine-6-thione monohydrate]
- absorption of an oral dose [5]: approximately 50 % of the administered dose

Compound: C[C@]12CC[C@H]3[C@@H](CCC4=CC(=O)CC[C@@]43C)[C@@H]1CC[C@@H]2OC(=O)OCOC(=O)COC(=O)C[N+](C)(C)C [testosterone-17-betainoyloxymethylcarbonyloxymethyl carbonate, iodide salt]
- half-life (in vitro): 8.5 min

Compound: C[C@]12CC[C@H]3[C@@H](CCC4=CC(=O)CC[C@@]43C)[C@@H]1CC[C@@H]2OC(=O)OCC[N+](C)(C)C [testosterone-17-choline carbonate, bromide salt]
- half-life (in vitro): 29 min

Compound: Cn1c(=O)c2c(ncn2COC(=O)C[N+](C)(C)C)n(C)c1=O [theophylline-7-(N,N,N,-trimethylglycyloxymethyl), iodide salt]
- half-life (in vitro): 0.5 min

Compound: CN(C)CC(=O)OCn1cnc2c1c(=O)n(C)c(=O)n2C [theophylline-7-(N,N-dimethylglycyloxymethyl]
- half-life (in vitro): 1680 min

Compound: Cn1c(=O)c2c(ncn2COC(=O)CCC[N+](C)(C)C)n(C)c1=O [theophylline-7-[4-(N,N,N-trimethylamino)-butyroyloxymethyl], bromide salt]
- half-life (in vitro): 144 min

Compound: CC(=O)O[C@H](CC(=O)O[C@H](C)[C@H](NC(=O)OCc1ccccc1)C(=O)OCc1ccccc1)C[N+](C)(C)C [threonine, L-isomer, HO-(O-acetyl-L-carnitine ester), N-CBZ, benzyl ester]
- half-life (in vitro): 40 min

Compound: C[C@@H](OC(=O)c1ccc[n+](C)c1)[C@H](NC(=O)OCc1ccccc1)C(=O)OCc1ccccc1 [threonine, L-isomer, HO-trigonellate ester, N-CBZ benzyl ester]
- half-life (in vitro): 40 min

Compound: Cytochrome c
- iontophoretic transport across skin [6]: can be iontophoretically transported readily across human or mouse skin

Compound: digitoxigenin-3-(O-acetyl-D,L-carnitine) ester, (D isomer), chloride salt
- Serum Half-life (in vitro): ~ 50 min

Compound: digoxin-12-{N-[6-(N',N',N'-trimethylamino)hexanoyloxymethyl]glycinoyloxymethyl} carbonate-3"',4"'-cyclic carbonate, bromide salt
- Serum Half-life (in vitro): 7 min
